# Test results as given in PMC4977753, “Inhibition of ADAM10 promotes the clearance of Aβ across the BBB by reducing LRP1 ectodomain shedding” (Fluids and Barriers of the CNS, 2016).
# Legend:
# PSAPP mice [1] = experiment: Tolerability of the GI254023X treatment regimen in PSAPP mice; assay type: in vivo; conditions: 200 mg/kg i.p. once per day for 5 days
# Method: PSAPP mice at 35 weeks of age were injected intraperitoneally with 200 mg/kg of GI254023X or vehicle (DMSO) once per day for 5 consecutive days. At this age, PSAPP mice display elevated levels of Aβ peptides in the brain [22]. […] One hour after the final injection, the mice were euthanatized and plasma and brain tissue were collected. The right hemisphere was used to examine the levels of soluble and insoluble Aβ40 and Aβ42 in the brain. […] Quantification of Aβ40 and Aβ42 in the GS, GI, and plasma fractions was determined using an ELISA for human Aβ40 and Aβ42 (Invitrogen, USA) and expressed as ng of Aβ per μg total protein. […] LRP1 levels in the soluble brain fraction and plasma were assessed using a mouse ELISA for LRP1 (Cedar Lane Labs, USA). Soluble brain LRP1 was normalized to the total protein content in the brain homogenate as determined by the BCA protein assay (Thermo Scientific, USA). Soluble brain LRP1 levels were expressed as ng of LRP1 per mg protein. Plasma LRP1 levels were expressed as ng/ml. […] The sAPPα levels were normalized to the total protein content in the brain homogenate as determined by the BCA protein assay and expressed as ng of sAPPα per mg protein.
# [2] = system: in vitro BBB model (HBMEC monolayer); experiment: Fluorescein-Aβ42 transit across an in vitro BBB model; assay type: cell-based, human; conditions: fluorescein-Aβ42 2 μM basolateral, 60 min, 37 °C, basolateral-to-apical, n = 3
# Method: The impact of ADAM10 on Aβ42 transcytosis was assessed using an in vitro BBB model previously described by our group. HBMECs were seeded onto fibronectin-coated 24-well membrane inserts forming a polarized monolayer representing the BBB. Aβ transcytosis across the BBB was assessed by exposing the basolateral side (“brain”) to 2 μM fluorescein-Aβ42 (rPeptide, USA) and treating the apical side (“blood”) with the ADAM10-selective inhibitor GI254023X (0.1–1 μM). After 60 min of incubation at 37 °C, samples were collected from the apical compartment to assess the basolateral-to-apical transcytosis of fluorescein-Aβ across the BBB model.
# Fig. 2 Fluorescin-Aβ42 transit across an in vitro BBB model following ADAM10 inhibition. Fluorescin-Aβ42 (2 μM) was exposed to the basolateral (“brain”) side of the in vitro BBB model, while various concentrations of the ADAM10 inhibitor GI254023X (0, 0.1, 1, and 10 μM) were exposed to the apical (“blood”) compartment. Following incubation at 37 °C, samples were collected from the […] at 60 min to assess the basolateral-to-apical transcytosis of fluorescin-Aβ42 across the BBB model. Values represent mean ± SEM (n = 3) and are expressed as the percentage change from control conditions. *p < 0.05; **p < 0.01; ***p < 0.001 as determined by one-way ANOVA followed by Tukey’s post hoc analysis
# [3] = system: in vitro BBB model (HBMEC monolayer); experiment: Permeability of paracellular marker Lucifer yellow-dextran across the in vitro BBB model (integrity control); assay type: cell-based, human; conditions: 10 kDa Lucifer yellow-dextran, any of the GI254023X concentrations, data not shown
# [4] = system: LRP1 shedding in human brain endothelial cells (HBMEC); experiment: In vitro LRP1 shedding in HBMEC monolayers (LRP1 ELISA of extracellular media); assay type: cell-based; conditions: 48 h, 37 °C
# Method: Human Brain Microvessel endothelial cells (HBMECs) (ScienCell, USA) were seeded at 50,000 cells per cm^2 onto fibronectin-coated 6-well plates as previously described by our group. When approximately 90 % confluent, cells were treated with Aβ42 (2 μM) or both Aβ42 and the ADAM10-selective inhibitor GI254023X (1 μM) (Sigma-Aldrich, USA) and incubated at 37 °C for 48 h. […] After the 48 h incubation, the extracellular media was collected and the level of soluble LRP1 was assessed using an ELISA for LRP1 (Cat# SEB010Hu, Cedar Lane Labs, USA).
# Fig. 1 LRP1shedding in human brain endothelial cells (HBMEC) following ADAM10 inhibition. HBMEC monolayers were exposed to human Aβ42 (2 μM) alone, Aβ42 (2 μM) and the ADAM10 inhibitor GI254023X (1 μM) for 48 h at 37 °C. LRP shedding was assessed by examining LRP content in the extracellular media using an LRP1 ELISA. Values represent mean ± SEM (n = 3) and are expressed as ng of extracellular LRP1 per ml of media. *p < 0.05 as determined by one-way ANOVA followed by Tukey’s post hoc analysis
# PSAPP mice [5] = experiment: Aβ, soluble LRP1 and sAPPα levels in PSAPP mice following ADAM10 inhibition; assay type: in vivo, mouse; conditions: 200 mg/kg i.p. once per day for 5 days
# Method: PSAPP mice at 35 weeks of age were injected intraperitoneally with 200 mg/kg of GI254023X or vehicle (DMSO) once per day for 5 consecutive days. At this age, PSAPP mice display elevated levels of Aβ peptides in the brain [22]. […] One hour after the final injection, the mice were euthanatized and plasma and brain tissue were collected. The right hemisphere was used to examine the levels of soluble and insoluble Aβ40 and Aβ42 in the brain. Briefly, the hemispheres were homogenized by sonication in 700 μl lysis buffer [M-PER + 1 % EDTA +0.2 % PMSF (Thermo Scientific, USA)] supplemented with Halt protease and phosphatase inhibitor cocktail (Thermo Scientific, USA) on ice before centrifugation at 14000g for 30 min at 4 °C. 100 μl of the resulting supernatant was mixed with 5 M guanidine in TRIS buffer resulting in the guanidine soluble (GS) fraction. For the guanidine insoluble (GI) fraction, 100 μl of the guanidine stock was combined with the original tissue pellet. Both GS and GI fractions were subsequently incubated at room temperature for 1 h and were mixed every 15 min. All samples were stored at −80 °C prior to analysis. Quantification of Aβ40 and Aβ42 in the GS, GI, and plasma fractions was determined using an ELISA for human Aβ40 and Aβ42 (Invitrogen, USA) and expressed as ng of Aβ per μg total protein. The left hemisphere was used to examine the levels of soluble LRP1 in the brain. Here, the hemisphere was homogenized using a Dounce homogenizer in ice cold in HBSS using the same procedure as the in vivo LRP1 shedding studies above. LRP1 levels in the soluble brain fraction and plasma were assessed using a mouse ELISA for LRP1 (Cedar Lane Labs, USA). Soluble brain LRP1 was normalized to the total protein content in the brain homogenate as determined by the BCA protein assay (Thermo Scientific, USA). Soluble brain LRP1 levels were expressed as ng of LRP1 per mg protein. Plasma LRP1 levels were expressed as ng/ml. In addition, sAPPα levels were examined in the brain homogenate of these same animals using an ELISA for sAPPα (IBL international, USA). The sAPPα levels were normalized to the total protein content in the brain homogenate as determined by the BCA protein assay and expressed as ng of sAPPα per mg protein.
# Fig. 4 LRP1 shedding brain and plasma following ADAM10 modulation in a mouse model of AD. The ADAM10 inhibitor GI254023X (200 mg/kg) or vehicle (DMSO) was administered via intraperitoneal injection once per day for five consecutive days to PSAPP mice (35 weeks of age). One hour after the final injection, the brains and plasma was collected and the soluble brain fraction a and the plasma b was probed for LRP using an ELISA. Values represent mean ± SEM (n = 8–9 [soluble brain LRP1] or 5 [soluble plasma LRP1]) and are expressed as the amount of LRP per mg total protein or per ml. *p < 0.05 as determined by an unpaired t test
# Fig. 5 Levels of sAPPα in the brain following ADAM10 modulation in a mouse model of AD. PSAPP mice (35 weeks of age) were treated in an acute 5-day treatment paradigm with ADAM10 inhibitor GI254023X (200 mg/kg) or vehicle (DMSO) which were administered via intraperitoneal injection. One hour after the final treatment, the brains were collected and sAPPα in the whole brain homogenate was probed using an sAPPα ELISA. Values represent mean ± SEM (n = 8–9) and are expressed as the amount of sAPPα per mg total protein. Statistical significance determined by an unpaired t test
# Fig. 6 Aβ plasma levels following ADAM10 modulation in a mouse model of AD. The ADAM10 inhibitor GI254023X (200 mg/kg) or vehicle (DMSO) was administered via intraperitoneal injection once per day for five consecutive days to PSAPP mice (35 weeks of age). One hour after the final injection, the plasma was collected and probed for a Aβ40 and b Aβ42 by ELISA. Values represent mean ± SEM (n = 8–9) and are expressed as the amount of Aβ40 or Aβ42 per ml of plasma. […]
# mice = conditions: 200 mg/kg i.p. once per day for 5 consecutive days; cited from earlier work
# Method: PSAPP mice at 35 weeks of age were injected intraperitoneally with 200 mg/kg of GI254023X or vehicle (DMSO) once per day for 5 consecutive days. At this age, PSAPP mice display elevated levels of Aβ peptides in the brain [22]. […] One hour after the final injection, the mice were euthanatized and plasma and brain tissue were collected. The right hemisphere was used to examine the levels of soluble and insoluble Aβ40 and Aβ42 in the brain. ...
# [6] = PSAPP mice, guanidine insoluble fraction, ELISA, n = 8-9, not statistically significant
# [7] = PSAPP mice, guanidine soluble fraction, ELISA, n = 8-9, not statistically significant
Compound,"tolerability of treatment regimen (appearance, behavior, weight loss) (PSAPP mice [1])","transcytosis of fluorescein-Aβ across in vitro BBB model (trend) ([2]; GI254023X 0.1, 1, 10 μM apical)",increase of fluorescein-Aβ transcytosis across in vitro BBB model versus control ([2]; significant increases at concentrations higher than 1 μM GI254023X),BBB permeability of the paracellular marker Lucifer yellow-dextran versus control [3],"effect on Aβ42-induced extracellular LRP1 shedding ([4]; Aβ42 2 μM plus GI254023X 1 μM, n = 3)","reduction of soluble LRP1 in the brain versus vehicle (PSAPP mice [5]; PSAPP mice 35 weeks, 1 h after final injection, soluble brain fraction, ELISA, n = 8-9, p < 0.05)",reduction of insoluble Aβ40 in the brain versus vehicle (PSAPP mice [5]; [6]),reduction of insoluble Aβ42 in the brain versus vehicle (PSAPP mice [5]; [6]),reduction of soluble Aβ40 in the brain versus vehicle (PSAPP mice [5]; [7]),reduction of soluble Aβ42 in the brain versus vehicle (PSAPP mice [5]; [7]),"LRP1 levels in the plasma versus vehicle (PSAPP mice [5]; PSAPP mice, plasma, ELISA, n = 5)","effect on Aβ42 plasma levels versus vehicle (PSAPP mice [5]; PSAPP mice, plasma, ELISA, n = 8-9)","increase of Aβ40 in the plasma versus vehicle (PSAPP mice [5]; PSAPP mice, plasma, ELISA, n = 8-9, significant)","level of sAPPα in the brain versus vehicle (PSAPP mice [5]; PSAPP mice, whole brain homogenate, sAPPα ELISA, n = 8-9)",ADAM10 activity in mice under this treatment regime (mice),tolerability of treatment regime (mice),"extracellular shedding of LRP1 compared to control conditions ([4]; Aβ42 2 μM, mean ± SEM n = 3, significant (p < 0.05))"
CNC(=O)[C@@H](NC(=O)[C@H](CCCc1ccccc1)[C@H](C)N(O)C=O)C(C)(C)C [GI254023X],well tolerated,increased following GI254023X treatment in a dose dependent manner,≥ 1.25 fold,no significant difference,completely abrogated the effect of Aβ42 on shedding,60%,1.20 fold,1.20 fold,1.15 fold,1.25 fold,not significantly different,not significant,1.45 fold,No significant difference,effectively inhibit ADAM10 activity,well tolerated with no adverse effects reported,–
"Aβ42: human recombinant beta-amyloid 42 peptide, used to induce LRP1 shedding; fluorescein-labeled form used as transport probe",–,–,–,–,–,–,–,–,–,–,–,–,–,–,–,–,twofold
